# Test results taken from patent US6407265B2, “Tin polyoxaalkanecarboxylates and compositions containing them” (priority 1998, dated 2002).
# Assays:
# A 498 (renal cancer) = format: cell-based, human; details: in vitro, A 498 renal cancer cell line
# IGROV (ovarian cancer) = format: cell-based, human; details: in vitro, IGROV ovarian cancer cell line
# MCF-7 (mammary cancer) = format: cell-based, human; details: in vitro, MCF-7 mammary cancer cell line
# From the text: (§1) The ID50 inhibition doses in ng/ml of the tested compounds are given in the table as well as those for some known reference compounds.
# WiDr (colon carcinoma) = format: cell-based, human; details: in vitro, WiDr colon carcinoma cell line
# [1] = tested on: H226 (non small cell lung cancer); format: cell-based, human; details: in vitro, H226 non small cell lung cancer cell line
# EVSA-T (mammary cancer) = format: cell-based, human; details: in vitro, EVSA-T mammary cancer cell line
# From the text: as §1
# M19 MEL (melanoma) = format: cell-based, human; details: in vitro, M19 MEL melanoma cell line
# [2] = Stability in the presence of water (117Sn NMR); format: physicochemical; details: CD3CD2OD solution, increasing amounts of D2O added, resonance regularly slightly shifted
# Experimental: The stability in the presence of water of four compounds, 6, 8, 9 and 12, was determined.
Compound,ID50 inhibition dose A498 (A 498 (renal cancer)),ID50 inhibition dose IGROV (IGROV (ovarian cancer)),ID50 inhibition dose MCF-7 (MCF-7 (mammary cancer)),ID50 inhibition dose WiDr (WiDr (colon carcinoma)),ID50 inhibition dose H226 [1],ID50 inhibition dose EVSA-T (EVSA-T (mammary cancer)),ID50 inhibition dose M19 (M19 MEL (melanoma)),Stability in the presence of water [2]
"CCC[CH2][Sn]([CH2]CCC)([CH2]CCC)[O]C(=O)c1ccc2c(c1)OCCOCCOCCOCCOCCO2 [Compound 2, tri-n-butyltin 4,7,10,13,16,19-hexaoxadicyclo[16.4.0]dicosa-1,3(20),21-triene-1-carboxylate]",0.097 µg/mL,0.03 µg/mL,0.035 µg/mL,0.011 µg/mL,0.1 µg/mL,0.006 µg/mL,0.07 µg/mL,
"CCC[CH2][Sn]([CH2]CCC)([CH2]CCC)[O]C(=O)c1ccc2c(c1)OCCOCCOCCOCCO2 [Compound 6, tri-n-butyltin 4,7,10,13,16-pentaoxadicyclo[13.4.0]cosa-1,3 (17),18-triene-1-carboxylate]",<0.003 µg/mL,<0.003 µg/mL,<0.003 µg/mL,<0.003 µg/mL,<0.003 µg/mL,<0.003 µg/mL,<0.003 µg/mL,single resonance
"N.N.[Cl][Pt][Cl] [cisplatin, reference compound]",2.253 µg/mL,0.169 µg/mL,0.699 µg/mL,0.967 µg/mL,3.269 µg/mL,0.422 µg/mL,0.558 µg/mL,
"O=C([O][Sn]([c]1ccccc1)([c]1ccccc1)[c]1ccccc1)c1ccc2c(c1)OCCOCCOCCOCCO2 [Compound 5, triphenyltin 4,7,10,13,16-pentaoxadicyclo[13.4.0]cosa-1,3 (17),18-triene-1-carboxylate]",<0.003 µg/mL,<0.003 µg/mL,<0.003 µg/mL,<0.003 µg/mL,<0.003 µg/mL,<0.003 µg/mL,<0.003 µg/mL,
"di-n-butyltin bis (3,6,9-trioxadecanoate) [Compound 14]",0.145 µg/mL,0.178 µg/mL,0.086 µg/mL,0.495 µg/mL,0.28 µg/mL,0.066 µg/mL,0.167 µg/mL,
CCC[CH2][Sn+2][CH2]CCC.O=C([O-])c1ccc2c(c1)OCCOCCOCCOCCOCCO2.O=C([O-])c1ccc2c(c1)OCCOCCOCCOCCOCCO2 [Compound 3],0.282 µg/mL,0.26 µg/mL,0.155 µg/mL,0.781 µg/mL,0.281 µg/mL,0.128 µg/mL,0.219 µg/mL,
"O=c1[nH]cc(F)c(=O)[nH]1 [5-fluoro-uracil, reference compound]",0.143 µg/mL,0.297 µg/mL,0.75 µg/mL,0.225 µg/mL,0.34 µg/mL,0.475 µg/mL,0.442 µg/mL,
"triphenyltin 3,6,9-trioxadecanoate [Compound 12]",0.021 µg/mL,0.033 µg/mL,0.009 µg/mL,0.019 µg/mL,0.025 µg/mL,0.009 µg/mL,0.024 µg/mL,single resonance
"COc1cccc2c1C(=O)c1c(O)c3c(c(O)c1C2=O)C[C@@](O)(C(=O)CO)C[C@@H]3O[C@H]1C[C@H](N)[C@H](O)[C@H](C)O1 [doxorubicin, reference compound]",0.09 µg/mL,0.06 µg/mL,0.01 µg/mL,0.011 µg/mL,0.199 µg/mL,0.008 µg/mL,0.016 µg/mL,
"CN(Cc1cnc2nc(N)nc(N)c2n1)c1ccc(C(=O)N[C@@H](CCC(=O)O)C(=O)O)cc1 [methotrexate, reference compound]",0.037 µg/mL,0.007 µg/mL,0.018 µg/mL,<0.003 µg/mL,2.287 µg/mL,0.005 µg/mL,0.023 µg/mL,
"COCCOCC(=O)[O][Sn]([c]1ccccc1)([c]1ccccc1)[c]1ccccc1 [Compound 8, triphenyltin 3,6-diheptanoate]",0.032 µg/mL,0.037 µg/mL,0.013 µg/mL,0.034 µg/mL,0.033 µg/mL,0.012 µg/mL,0.031 µg/mL,single resonance
"CCC[CH2][Sn]([CH2]CCC)([O]C(=O)COCCOC)[O]C(=O)COCCOC [Compound 10, di-n-butyltin bis(3,6-diheptanoate)]",0.134 µg/mL,0.128 µg/mL,0.06 µg/mL,0.379 µg/mL,0.161 µg/mL,0.062 µg/mL,0.115 µg/mL,
"CCC[CH2][Sn]([CH2]CCC)([O]C(=O)c1ccc2c(c1)OCCOCCOCCOCCO2)[O]C(=O)c1ccc2c(c1)OCCOCCOCCOCCO2 [Compound 7, di-n-butyltin bis[4,7,10,13,16-pentaoxadicyclo[13.4.0]cosa-1,3(17),18-triene-1-carboxylate]]",0.049 µg/mL,0.321 µg/mL,0.273 µg/mL,0.332 µg/mL,0.854 µg/mL,0.237 µg/mL,0.286 µg/mL,
"bis[di-n-butyl(3,6-dioxaheptanoato)tin]oxide [Compound 11]",<0.003 µg/mL,<0.003 µg/mL,<0.003 µg/mL,0.006 µg/mL,0.005 µg/mL,<0.003 µg/mL,<0.003 µg/mL,
"bis[di-n-butyl(3,6,9-trioxadecanoato)tin]oxide [Compound 15]",<0.003 µg/mL,<0.003 µg/mL,<0.003 µg/mL,0.003 µg/mL,<0.003 µg/mL,<0.003 µg/mL,<0.003 µg/mL,
"CCC[CH2][Sn]([CH2]CCC)([CH2]CCC)[O]C(=O)COCCOC [Compound 9, tri-n-butyltin 3,6-diheptanoate]",0.153 µg/mL,0.084 µg/mL,0.032 µg/mL,0.082 µg/mL,0.061 µg/mL,0.04 µg/mL,0.09 µg/mL,single resonance
"bis{di-n-butyl-[4,7,10,13,16,19-hexaoxadicyclo[16.4.0]dicosa-1,3(20),21-triene-1-carboxylato]tin}oxide [Compound 4]",0.126 µg/mL,0.082 µg/mL,0.036 µg/mL,0.239 µg/mL,0.073 µg/mL,0.046 µg/mL,0.068 µg/mL,
"O=C([O][Sn]([c]1ccccc1)([c]1ccccc1)[c]1ccccc1)c1ccc2c(c1)OCCOCCOCCOCCOCCO2 [Compound 1, triphenyltin 4,7,10,13,16,19-hexaoxadicyclo[16.4.0]dicosa-1,3 (20),21-triene-1-carboxylate]",0.043 µg/mL,0.03 µg/mL,0.015 µg/mL,0.013 µg/mL,0.037 µg/mL,0.012 µg/mL,0.016 µg/mL,
"COc1cc([C@@H]2c3cc4c(cc3[C@@H](O[C@@H]3O[C@@H]5CO[C@@H](C)O[C@H]5[C@H](O)[C@H]3O)[C@H]3COC(=O)[C@H]23)OCO4)cc(OC)c1O [etoposide, reference compound]",1.314 µg/mL,0.58 µg/mL,,0.15 µg/mL,3.934 µg/mL,,0.505 µg/mL,
